Source: patent US7304084B2, “6-[(4,5-Dihydro-1H-imidazol-2-yl)amino]-7-methyl-1H-benzimidazole-4-carbonitrile and its preferred salt” (The Board of Regents of the University of Nebraska, priority 2003, dated 2007)
Values after ≈ are worked out from the molar mass of the structure shown. Structures can show the parent of a compound that is named as a salt. Where two headings read alike, the source gives them in different places.

What was measured:
[1] = Solubility in water at ambient temperature (saturated solution, supernatant by quantitative HPLC); format: physicochemical
Procedure: One such technique is to prepare a saturated solution of the salt form by shaking a suspension of the salt form in water, until a saturated solution is obtained. The saturated solution is then centrifuged and the concentration of the supernatant is determined by quantitative HPLC analysis. A suitable HPLC method is described in Example 1.

[2] = Ames Test dose/response studies; format: cell-based; conditions: impurity (2) present in compound (1) and its various salt forms
Text: [drawing 10] is produced in pharmaceutically unacceptable levels using these previous methods. Based on dose/response studies using an Ames Test, the mutagenic impurity (2) is shown to elicit a positive response when present at level about 1 ppm (parts per million) in 6-[(4,5-Dihydro-1H-imidazol-2-yl)amino-]-7-methyl-1H-benzimidazole-4-carbonitrile (1) and its various salt forms. Low levels of this phenazine impurity can be detected by those methods well known in the art such as HPLC with fluorescence detection. Suitable examples of such assays are described in Examples 1, 2, and 3 herein. A suitable preparation of labeled ^15N4-2,3,7-Triamino-4,6-dimethyl-1,9-phenazinedicarbonitrile is described in Example 4 herein. A suitable preparation of non-labeled 2,3,7-Triamino-4,6-dimethyl-1,9-phenazinedicarbonitrile is described in Example 19 herein. III. Methods of Making Intermediate of Formula (II)

Compound: CC(=O)O.Cc1c(NC2=NCCN2)cc(C#N)c2nc[nH]c12 [Acetate Salt Form, 6-[(4,5-Dihydro-1H-imidazol-2-yl)amino-]-7-methyl-1H-benzimidazole-4-carbonitrile, Acetic Acid Salt (1:1)]
- solubility in water [1]: about 135 mg/mL

Compound: Cc1c(N=C2NCCN2)cc(C#N)c2[nH]cnc12 [Free Base Form, 6-[(4,5-Dihydro-1H-imidazol-2-yl)amino-]-7-methyl-1H-benzimidazole-4-carbonitrile]
- solubility ([1]; water, thermodynamic from solid): ~400 µg/mL (≈ 1660 µM)

Compound: Cc1c(NC2=NCCN2)cc(C#N)c2nc[nH]c12 [Sulfate Salt Form, 6-[(4,5-Dihydro-1H-imidazol-2-yl)amino-]-7-methyl-1H-benzimidazole-4-carbonitrile, reference compound]
- solubility in water ([1]; water, ambient temperature): about 4 mg/mL

Compound: Cc1c(N)cc(C#N)c2nc3c(C#N)c(N)c(N)c(C)c3nc12 [compound 2, 2,3,7-triamino-4,6-dimethyl-1,9-phenazinedicarbonitrile]
- level of the impurity at which a positive response is elicited in the Ames Test [2]: about 1 ppm
